Data on three compounds can be found in patent publication US12492173B2, “Herbicidal substituted N-tetrazolyl aryl carboxamides” (Bayer Aktiengesellschaft, priority 2019, dated 2025).

Common to all, as to assay type: in vivo
The subject of one assay is Amaranthus retroflexus. In words: Post-emergence herbicidal action, AMARE. Further details: key: % herbicidal action vs untreated; 100 = plants died, 0 = like control. The method, boiled down: (§1)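 Values are visual estimates of herbicidal action, from 0% (as untreated) to 100% (dead), made about 3 weeks after plants at one-leaf stage in sandy loam were sprayed with the formulated compound.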

Another assay has as its system Abutilon theophrasti. In words: Post-emergence herbicidal action, ABUTH. More on the design: key: % herbicidal action vs untreated; 100 = plants died, 0 = like control. The method, boiled down:
as §1

The next assay relates to Setaria viridis. In words: Pre-emergence herbicidal action, SETVI. Conditions: dosage 320 g/ha, scored visually after 3 weeks vs untreated controls (100% = plants have died). The method, boiled down:
(§2)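 Seeds sown in sandy loam in pots and covered with soil; compounds formulated as WP or EC were sprayed onto the soil surface as aqueous suspension/emulsion at 600 to 800 l/ha water with 0.2% wetting agent. Greenhouse growth; visual damage scored after 3 weeks versus untreated controls (100% = plants died, 0% = like control).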

The subject of another assay is Viola tricolor. Put plainly: Post-emergence herbicidal action, VIOTR. More on the design: key: % herbicidal action vs untreated; 100 = plants died, 0 = like control. The method, boiled down: as §1
A further assay deals with Veronica persica. Put plainly: Pre-emergence herbicidal action, VERPE. Particulars: dosage 320 g/ha, scored visually after 3 weeks vs untreated controls (100% = plants have died). The method, boiled down: as §2
For the next assay, the system named is Echinochloa crus-galli. Put plainly: Pre-emergence herbicidal action, ECHCG. Particulars: dosage 320 g/ha, scored visually after 3 weeks vs untreated controls (100% = plants have died). The method, boiled down:
as §2

Molecules are shown by their SMILES.

Regarding `CCCn1nnnc1NC(=O)c1ccc(C(F)(F)F)c(C[S+](C)[O-])c1Br` (stereo not drawn) [Example 3-381], the “herbicidal action AMARE” value in the assay on Amaranthus retroflexus (post-emergence, dosage 80 g/ha) is 90%. In the assay with Abutilon theophrasti (post-emergence, dosage 80 g/ha), the “herbicidal action ABUTH” value was 90%. The “herbicidal activity SETVI” value in the assay with Setaria viridis amounted to 90%. Besides, in the assay on Viola tricolor (post-emergence, dosage 80 g/ha), the “herbicidal action VIOTR” value came to 100%. Further, the “herbicidal activity VERPE” value with Veronica persica is recorded as 100%. For the same compound, in the assay on Echinochloa crus-galli, the “herbicidal activity ECHCG” value turned out to be 100%.

In the case of `CCCn1nnnc1NC(=O)c1ccc(C(F)(F)F)c(CSCC)c1Br` [Example 3-383], in the assay with Amaranthus retroflexus (Dosage 80 g/ha), the “herbicidal action AMARE” value is recorded as 90. The “herbicidal action ABUTH” value with Abutilon theophrasti (Dosage 80 g/ha) was 90. In addition, the “herbicidal activity SETVI” value in the assay with Setaria viridis is 100%. Besides, in the assay on Viola tricolor (Dosage 80 g/ha), the “herbicidal action VIOTR” value is recorded as 100. In addition, the “herbicidal activity VERPE” value with Veronica persica is 100%. Besides, the “herbicidal activity ECHCG” value in the assay on Echinochloa crus-galli came to 100%.

Regarding `CCCn1nnnc1NC(=O)c1ccc(C(F)(F)F)c(CS(=O)(=O)CC)c1Br` [Example 3-385], the “herbicidal action AMARE” value in the assay with Amaranthus retroflexus (Dosage 80 g/ha) worked out at 90. Moreover, the “herbicidal action ABUTH” value with Abutilon theophrasti (Dosage 80 g/ha) is reported as 100. In the assay with Setaria viridis, the “herbicidal activity SETVI” value was determined as 100%. Besides, the “herbicidal action VIOTR” value in the assay on Viola tricolor (Dosage 80 g/ha) was 100. In addition, in the assay with Veronica persica, the “herbicidal activity VERPE” value stood at 100%. For the same compound, the “herbicidal activity ECHCG” value with Echinochloa crus-galli was determined as 100%.
